Literature values as cited in patent US8759282B2, “Water-soluble films comprising low-viscosity alginates” (Uppsalagruppen Medical AB, priority 2005, dated 2014).
Where two headings read alike, the source gives them in different places.

Assays:
[1] = not given; remark: listed apart in the source

Solubility in water ([1]; listed as ibuprofen) | Compound | pKa | Solubility in water [1]
– | CN1CCC[C@H]1c1cccnc1 [Substance 4, (S)-3-(1-Methyl-2-pyrrolidinyl)pyridine] | 8.5 | liquid miscible with water
– | CC(=O)Oc1ccccc1C(=O)O [Substance 2, 2-Acetoxibensoesyra] | – | 1 g/100 g of water
– | CC(=O)Nc1ccc(O)cc1 [Substance 1, N-Acetyl-p-aminophenol] | – | only slightly soluble in water
only slightly soluble in water | CC(C)Cc1ccc(C(C)C(=O)O)cc1 (stereo not drawn) [Substance 3, p-Isobutylhydratropic acid] | – | slightly soluble in water
